These results are taken from patent US20240360134A1, “PYRAZOLOPYRIMIDINES AND THEIR USES AS PDGFR INHIBITORS” (priority 2021, published 2024).

Read-outs that look alike come from different tables or passages of the source.

One test concerns the target VEGFR2, unphosphorylated (Homo sapiens (Human), UniProt P35968). Kind of test: VEGFR ADP GLO assay. Type of test: biochemical. Particulars: 5 nM VEGFR2, 1.2 mM ATP, 1 mg/mL Srctide, 180 min. The protocol:
Assay buffer stock contains 50 mM HEPES pH7.5, 10 mM MgCl2, 0.01% Brij-35, and 1 mM EGTA.
Unphosphorylated VEGFR2. 52.6 μM in 50 mM Tris-HCl, pH 8.0, 50 mM NaCl, 5% Glycerol, 0.5 mM TCEP. Store at −80° C. in aliquots.
10 mg/mL srctide solution, prepared in Assay buffer (Assay buffer stock with 2 mM DTT, 0.1% Pluronic F-127, and 0.1 mg/mL ovalbumin). Sonicate 10 mg/ml Srctide solution for 10 minutes and then vacuum filter.
Assay buffer. Add DTT to 2 mM, Pluronic F-127 to 0.1% and ovalbumin to 0.1 mg/mL to Assay buffer stock.
2× kinase solution. Make a working solution of 10 nM unphosphorylated VEGFR2 in Assay buffer. Vacuum filter 2× kinase solution prior to running assay. Keep on ice until use.
2× substrate/ATP solution. Make a working solution of 2 mg/mL srctide and 2.4 mM ATP in Assay buffer. Keep on ice until use.
Step 1. Dispensing inhibitors/controls: Using Echo, dispense 10 nL/well compound serial dilutions in DMSO to columns 1-22 (in 384-well plates) or columns 1-44 (in 1536-well plates). Dilution series=11 pt, 3-fold dilutions. The top compound concentration in the source plate is 4 mM. The top compound concentration in the assay plate is 10 uM. Using Echo, dispense 10 nl/well DMSO to column 23 (in 384-well plates) or columns 45-47 (in 1536-well plates). These wells will serve as negative control wells Using Echo, dispense 10 nl/well 400 uM TAK-593 in DMSO to column 24 (in 384-well plates) or column 48 (in 1536-well plates). The final concentration of TAK-593 in the assay should be 1 uM. These wells will serve as positive control wells.
Step 2. Pre-incubation of inhibitors with kinase: Add 2 μL/well 2× kinase solution. Centrifuge at 1000 rpm for 1 min. Incubate at room temperature for 30 min.
Step 3. Kinase cascade reaction: Add 2 μL/well 2× substrate/ATP solution to initiate kinase reactions. Centrifuge at 1000 rpm for 1 min. Incubate at room temperature for 180 min.
Final concentrations of components in the assay:
Step 4. Quench: Add 2 uL/well ADP Glo Reagent+0.05% CHAPS. Centrifuge at 1000 rpm for 1 min; Incubate at room temperature for one hour.
Step 5. Detection: Add 2 uL/well Kinase Detection Reagent+0.05% CHAPS. Centrifuge at 1000 rpm for 1 min; Incubate at room temperature for 1 hour; Read Luminescence on a plate reader.
% Inhibition: % Inhibition=(NC−sample)/(NC−PC)*100 where NC is the mean of negative control (reactions without inhibitor), and PC is the mean of positive control (1 μM TAK-593).
IC50 values are determined from a 4-parameter fit, using the following equation: Y=Bottom+(Top−Bottom)/(1+10^(Log IC50-X)*Hill Slope), where X=log10 of the compound concentration; top can be defined by PC; bottom defined by NC.
Background: ADP-Glo turns the ADP formed in a reaction into a luminescent signal.

The next test has as its target PDGFRβ (Rattus norvegicus (Rat), UniProt Q05030). Kind of test: PDGFRβ Cellular Assay (PDGFRb P-Y751 HTRF, PDGF-BB stimulated A10 cells). Type of test: cell-based. The protocol:
Cell Culture and Preparation: Cells are cultured according to ATCC procedure (5) with the addition of the antibiotic penicillin-streptomycin. If working from frozen, cells should be thawed according to ATCC procedure. Depending on the cell density of frozen vial, cells will need time to recover from thaw. An 80% confluent T75 flask should be enough for one 384 well plate.
Stock Solutions: Rat PDGFBB. A 100 ug/mL stock is prepared by reconstituting 50 ug in 500 μL of 4 mM HCl and 0.1% BSA. It can be stored for a month at 4° C., or aliquoted out and frozen in the −20/−80° C. to avoid multiple free-thaw cycles.
1× Cisbio cell lysis buffer. The cell lysis buffer is diluted 4-fold with molecular grade water. The blocking agent is then diluted 25-fold in the diluted lysis buffer.
Antibody solutions. Equal amounts d2 and cryptate antibody are diluted 20-fold in detection buffer.
Rat PDGFBB. A working stock of 100 ng/mL is created from the stock solution in 10% FBS culture media.
Step 1: Plating Cells: Media from the A10 cell flask is aspirated. The cells are rinsed with PBS and then trypsinized to disperse the cell layer. The cells are then pelleted are resuspended to 1.25e5 cells/mL. […] Plates are covered and placed in the incubator (37° C. 5% CO2) overnight to allow cells to adhere.
Step 2: Compound Dispense: Approximately 18 hours after plating, dispense 40 nL compound onto cells using Echo. […] The plate is returned to the incubator for 3 hours.
After 10 minutes the media is removed by flicking the plate.
Step 4: Cell lysis and antibody addition: 20 uL lysis buffer per well is added to the plate via Tempest. 5 uL antibody solution is added per well via the Tempest. The plate is placed on the shaker at 230 rpm for 1 hour at room temperature.
Step 5: Detection: The plate is read using the HTRF module on the BMG Pherastar. Data is analyzed using Genedata Screener.
IC50 values are determined from a 4-parameter fit, using the following equation: Y=Bottom+(Top−Bottom)/(1+10((Log IC50−X)*Hill slope)), where X=log10 of the compound concentration; top can be defined by PC; bottom defined by NC.

VEGFR2, unphosphorylated, sequence (P35968 whole entry, looked up): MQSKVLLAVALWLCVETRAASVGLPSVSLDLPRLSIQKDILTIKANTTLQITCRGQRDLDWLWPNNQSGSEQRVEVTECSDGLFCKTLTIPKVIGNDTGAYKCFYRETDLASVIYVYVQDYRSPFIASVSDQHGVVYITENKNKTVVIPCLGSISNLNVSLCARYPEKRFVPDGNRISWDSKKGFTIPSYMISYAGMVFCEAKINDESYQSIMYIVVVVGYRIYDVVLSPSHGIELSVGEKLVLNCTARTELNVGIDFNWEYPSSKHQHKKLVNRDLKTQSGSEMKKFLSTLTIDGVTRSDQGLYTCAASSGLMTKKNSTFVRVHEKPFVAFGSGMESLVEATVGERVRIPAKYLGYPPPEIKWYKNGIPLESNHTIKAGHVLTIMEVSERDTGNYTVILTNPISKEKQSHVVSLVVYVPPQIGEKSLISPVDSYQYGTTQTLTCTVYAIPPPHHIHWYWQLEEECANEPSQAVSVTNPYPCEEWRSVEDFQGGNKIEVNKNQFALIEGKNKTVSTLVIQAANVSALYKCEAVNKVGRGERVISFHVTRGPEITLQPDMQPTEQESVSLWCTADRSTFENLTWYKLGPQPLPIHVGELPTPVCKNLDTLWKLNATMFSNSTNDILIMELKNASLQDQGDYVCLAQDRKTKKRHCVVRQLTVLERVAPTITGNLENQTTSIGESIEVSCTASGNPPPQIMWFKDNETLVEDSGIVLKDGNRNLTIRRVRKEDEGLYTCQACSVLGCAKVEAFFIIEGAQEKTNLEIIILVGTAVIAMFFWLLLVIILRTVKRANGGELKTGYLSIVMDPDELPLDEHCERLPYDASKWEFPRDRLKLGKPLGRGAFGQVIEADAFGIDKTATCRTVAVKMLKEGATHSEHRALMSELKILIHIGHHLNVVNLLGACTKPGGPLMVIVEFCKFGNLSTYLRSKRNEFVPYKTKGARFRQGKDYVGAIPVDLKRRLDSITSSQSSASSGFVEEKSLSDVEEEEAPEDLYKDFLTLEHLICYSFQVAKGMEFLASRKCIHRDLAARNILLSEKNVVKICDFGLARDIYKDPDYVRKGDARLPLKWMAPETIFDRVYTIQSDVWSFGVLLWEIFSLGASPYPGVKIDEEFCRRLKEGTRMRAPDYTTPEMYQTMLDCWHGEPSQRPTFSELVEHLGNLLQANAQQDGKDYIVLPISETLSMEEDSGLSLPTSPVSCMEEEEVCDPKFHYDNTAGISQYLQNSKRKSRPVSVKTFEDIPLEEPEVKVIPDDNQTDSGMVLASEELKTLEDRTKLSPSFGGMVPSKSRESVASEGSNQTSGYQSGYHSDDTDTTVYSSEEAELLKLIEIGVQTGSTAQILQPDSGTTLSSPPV
PDGFRβ, sequence (Q05030 whole entry, looked up): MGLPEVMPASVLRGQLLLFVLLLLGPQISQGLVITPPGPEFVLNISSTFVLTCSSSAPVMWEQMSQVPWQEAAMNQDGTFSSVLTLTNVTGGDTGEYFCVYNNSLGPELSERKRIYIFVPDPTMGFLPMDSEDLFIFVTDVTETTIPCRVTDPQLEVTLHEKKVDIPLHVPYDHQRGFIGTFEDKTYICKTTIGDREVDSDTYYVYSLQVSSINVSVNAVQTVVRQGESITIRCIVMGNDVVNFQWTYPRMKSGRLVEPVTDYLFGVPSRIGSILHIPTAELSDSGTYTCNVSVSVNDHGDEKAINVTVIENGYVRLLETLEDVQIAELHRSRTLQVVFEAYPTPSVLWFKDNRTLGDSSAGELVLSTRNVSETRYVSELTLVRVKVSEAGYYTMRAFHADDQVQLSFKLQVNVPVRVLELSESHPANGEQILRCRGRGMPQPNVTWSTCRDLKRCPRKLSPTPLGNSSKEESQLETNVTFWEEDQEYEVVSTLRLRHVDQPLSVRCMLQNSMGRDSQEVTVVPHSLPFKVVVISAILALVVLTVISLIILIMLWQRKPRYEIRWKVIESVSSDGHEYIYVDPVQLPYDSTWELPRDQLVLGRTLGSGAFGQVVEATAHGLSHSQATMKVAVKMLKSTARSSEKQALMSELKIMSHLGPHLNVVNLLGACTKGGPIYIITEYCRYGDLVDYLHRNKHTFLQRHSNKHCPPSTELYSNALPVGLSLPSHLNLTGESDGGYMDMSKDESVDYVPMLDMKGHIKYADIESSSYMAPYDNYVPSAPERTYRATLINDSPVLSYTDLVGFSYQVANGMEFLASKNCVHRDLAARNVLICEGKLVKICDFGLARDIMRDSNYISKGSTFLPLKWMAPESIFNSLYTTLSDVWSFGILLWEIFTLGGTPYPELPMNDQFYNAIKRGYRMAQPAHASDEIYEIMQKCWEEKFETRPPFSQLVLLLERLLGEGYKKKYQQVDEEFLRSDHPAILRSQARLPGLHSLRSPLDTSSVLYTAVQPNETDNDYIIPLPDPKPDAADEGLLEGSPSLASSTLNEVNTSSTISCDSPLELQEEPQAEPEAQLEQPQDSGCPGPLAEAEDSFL

For the compound `Cc1ncc(C(=O)NCCN2CCCC23COC3)cc1Nc1nn(C)c2nc(Nc3cnn(C)c3)ncc12` [Example 18, N-(2-(2-oxa-5-azaspiro[3.4]octan-5-yl)ethyl)-6-methyl-5-((1-methyl-6-((1-methyl-1H-pyrazol-4-yl)amino)-1H-pyrazolo[3,4-d]pyrimidin-3-yl)amino)nicotinamide], the IC50 (usually the midpoint of a concentration-inhibition curve) against VEGFR2, unphosphorylated is more than 7500 nM; against PDGFRβ it was 40.1 nM.

On to `Cn1nc(Nc2cc(C(=O)NCCN3CCCC3(C)C)ccc2F)c2cnc(Nc3ccnnc3)nc21` [Example 50, N-(2-(2,2-dimethylpyrrolidin-1-yl)ethyl)-4-fluoro-3-((1-methyl-6-(pyridazin-4-ylamino)-1H-pyrazolo[3,4-d]pyrimidin-3-yl)amino)benzamide], for which the IC50 is more than 7500 nM against VEGFR2, unphosphorylated and 45.8 nM on PDGFRβ.

Consider `Cc1ncc(C(=O)NCCN2CCS(=O)(=O)CC2)cc1Nc1nn(C)c2nc(Nc3cnn(C)c3)ncc12` [Example 23, N-(2-(1,1-dioxidothiomorpholino)ethyl)-6-methyl-5-((1-methyl-6-((1-methyl-1H-pyrazol-4-yl)amino)-1H-pyrazolo[3,4-d]pyrimidin-3-yl)amino)nicotinamide], for which the IC50 against VEGFR2, unphosphorylated was more than 7500 nM; at PDGFRβ, 294 nM.

As for `Cc1ncc(C(=O)NCCN2CC[C@H](C)C2)cc1Nc1nn(C)c2nc(Nc3cncnc3)ncc12` [Example 12, (S)-6-methyl-5-((1-methyl-6-(pyrimidin-5-ylamino)-1H-pyrazolo[3,4-d]pyrimidin-3-yl)amino)-N-(2-(3-methylpyrrolidin-1-yl)ethyl)nicotinamide], the IC50 against VEGFR2, unphosphorylated is more than 7500 nM; at PDGFRβ, 110 nM.

As to `COCC1CCCN1CCNC(=O)c1cnc(C)c(Nc2nn(C)c3nc(Nc4cnn(C)c4)ncc23)c1` (stereo not drawn) [Example 25, N-(2-(2-(methoxymethyl)pyrrolidin-1-yl)ethyl)-6-methyl-5-((1-methyl-6-((1-methyl-1H-pyrazol-4-yl)amino)-1H-pyrazolo[3,4-d]pyrimidin-3-yl)amino)nicotinamide], the IC50 at VEGFR2, unphosphorylated was more than 7500 nM; on PDGFRβ, 12.9 nM.

Consider `Cc1ncc(C(=O)NCCN2CC[C@@H](C)C2)cc1Nc1nn(C)c2nc(Nc3cncnc3)ncc12` [Example 59, (R)-6-methyl-5-((1-methyl-6-(pyrimidin-5-ylamino)-1H pyrazolo-[3,4-d]pyrimidin-3-yl)amino)-N-(2-(3-methylpyrrolidin-1-yl)ethyl)nicotinamide], for which the IC50 on VEGFR2, unphosphorylated is more than 7500 nM; on PDGFRβ (A10 cells, 3 hours compound, 15 ng/mL PDGFbb for 10 minutes, read-out: PDGFR Cellular IC50), 190 nM.

On to `Cc1ncc(C(=O)NCCN(C)C2CCOCC2)cc1Nc1nn(C)c2nc(Nc3cnn(C)c3)ncc12` [Example 21, 6-methyl-N-(2-(methyl(tetrahydro-2H-pyran-4-yl)amino)ethyl)-5-((1-methyl-6-((1-methyl-1H-pyrazol-4-yl)amino)-1H-pyrazolo[3,4-d]pyrimidin-3-yl)amino)nicotinamide], for which the IC50 against VEGFR2, unphosphorylated is more than 7500 nM; against PDGFRβ it was 66.3 nM.

In the case of `Cc1ncc(C(=O)NCCN2CCC3(CCC3)C2)cc1Nc1nn(C)c2nc(Nc3cnn(C)c3)ncc12` [Example 83, N-(2-(6-azaspiro[3.4]octan-6-yl)ethyl)-6-methyl-5-((1-methyl-6-((1-methyl-1H-pyrazol-4-yl)amino)-1H-pyrazolo[3,4-d]pyrimidin-3-yl)amino)nicotinamide], the IC50 at VEGFR2, unphosphorylated is more than 7500 nM; on PDGFRβ, 26.2 nM.

On to `COC1CCN(CCNC(=O)c2cnc(C)c(Nc3nn(C)c4nc(Nc5cnn(C)c5)ncc34)c2)CC1` [Example 22, N-(2-(4-methoxypiperidin-1-yl)ethyl)-6-methyl-5-((1-methyl-6-((1-methyl-1H-pyrazol-4-yl)amino)-1H-pyrazolo[3,4-d]pyrimidin-3-yl)amino)nicotinamide], for which the IC50 on VEGFR2, unphosphorylated is more than 7500 nM; at PDGFRβ it was 88.7 nM.

`Cc1ncc(C(=O)NCCN2CCC3(CC2)COC3)cc1Nc1nn(C)c2nc(Nc3cnn(C)c3)ncc12` [Example 20, N-(2-(2-oxa-7-azaspiro[3.5]nonan-7-yl)ethyl)-6-methyl-5-((1-methyl-6-((1-methyl-1H-pyrazol-4-yl)amino)-1H-pyrazolo[3,4-d]pyrimidin-3-yl)amino)nicotinamide]: the IC50 was more than 7500 nM on VEGFR2, unphosphorylated and 168 nM at PDGFRβ.

With `Cc1ncc(C(=O)NCCN2CCOCC23CC3)cc1Nc1nn(C)c2nc(Nc3cnn(C)c3)ncc12` [Example 24, N-(2-(7-oxa-4-azaspiro[2.5]octan-4-yl)ethyl)-6-methyl-5-((1-methyl-6-((1-methyl-1H-pyrazol-4-yl)amino)-1H-pyrazolo[3,4-d]pyrimidin-3-yl)amino)nicotinamide], the IC50 is more than 7500 nM at VEGFR2, unphosphorylated and 22.1 nM at PDGFRβ.

Take `Cc1ncc(C(=O)NCCN2CC3COCC3C2)cc1Nc1nn(C)c2nc(Nc3cnn(C)c3)ncc12` (stereo not drawn) [Example 26, 6-methyl-5-((1-methyl-6-((1-methyl-1H-pyrazol-4-yl)amino)-1H-pyrazolo[3,4-d]pyrimidin-3-yl)amino)-N-(2-(tetrahydro-1H-furo[3,4-c]pyrrol-5(3H)-yl)ethyl)nicotinamide]: the IC50 on VEGFR2, unphosphorylated was more than 7500 nM; at PDGFRβ it was 92.5 nM.
